The values that follow come from ChEMBL document CHEMBL4814005, “Pragmatic recruitment of memantine as the capping group for the design of HDAC inhibitors: A preliminary attempt to unravel the enigma of glioblastoma” (Eur J Med Chem, 2021).

Experiment [1] concerns the target T1, Protein deacetylase HDAC6 (Homo sapiens, UniProt Q9UBN7).
T1 sequence (Q9UBN7 whole entry): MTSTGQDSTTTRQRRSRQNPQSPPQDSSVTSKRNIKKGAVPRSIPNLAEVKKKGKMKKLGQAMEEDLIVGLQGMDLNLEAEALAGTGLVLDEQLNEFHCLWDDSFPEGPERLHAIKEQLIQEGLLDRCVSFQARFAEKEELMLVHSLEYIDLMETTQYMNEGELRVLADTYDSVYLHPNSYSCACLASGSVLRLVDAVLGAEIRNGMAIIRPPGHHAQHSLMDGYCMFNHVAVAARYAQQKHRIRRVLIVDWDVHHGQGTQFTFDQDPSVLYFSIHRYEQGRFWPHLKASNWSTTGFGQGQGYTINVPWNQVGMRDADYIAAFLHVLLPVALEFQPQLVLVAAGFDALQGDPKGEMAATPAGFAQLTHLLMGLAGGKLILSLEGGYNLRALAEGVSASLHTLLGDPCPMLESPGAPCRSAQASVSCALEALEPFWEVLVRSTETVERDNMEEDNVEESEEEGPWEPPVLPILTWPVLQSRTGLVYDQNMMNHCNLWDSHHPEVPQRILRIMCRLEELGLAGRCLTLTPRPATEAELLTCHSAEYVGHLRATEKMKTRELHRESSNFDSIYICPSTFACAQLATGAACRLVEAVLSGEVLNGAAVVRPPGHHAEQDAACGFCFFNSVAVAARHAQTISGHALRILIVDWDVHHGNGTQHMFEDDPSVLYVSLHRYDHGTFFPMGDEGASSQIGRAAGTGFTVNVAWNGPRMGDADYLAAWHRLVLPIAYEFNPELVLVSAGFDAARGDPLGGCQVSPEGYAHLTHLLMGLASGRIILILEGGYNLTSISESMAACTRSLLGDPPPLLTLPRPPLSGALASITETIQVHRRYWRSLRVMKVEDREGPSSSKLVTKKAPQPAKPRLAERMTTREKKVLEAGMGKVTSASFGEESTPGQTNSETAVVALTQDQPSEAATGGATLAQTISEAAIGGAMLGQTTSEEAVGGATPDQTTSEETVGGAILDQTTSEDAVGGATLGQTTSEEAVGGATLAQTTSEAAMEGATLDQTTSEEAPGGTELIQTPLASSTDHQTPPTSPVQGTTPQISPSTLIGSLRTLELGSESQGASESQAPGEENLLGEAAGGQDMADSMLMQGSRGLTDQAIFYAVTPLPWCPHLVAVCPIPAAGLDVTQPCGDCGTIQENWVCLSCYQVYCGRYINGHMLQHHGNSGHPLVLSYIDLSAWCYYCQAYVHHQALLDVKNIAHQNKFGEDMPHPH
The experiment can be described thus: Inhibition of human recombinant HDAC6 expressed in baculovirus infected insect cells using [RHKK(Ac)] fluorogenic substrate.

Experiment [2] relates to Glioblastoma cell line. The experiment can be described thus: Antiproliferation activity against TMZ resistant human glioblastoma cell P1S assessed as growth inhibition at 3 uM by MTT assay. It is filed as functional. (Tetrazolium dyes change colour on reduction, which living cells bring about.)
In experiment [3] the test system is U-87 MG. Nature of the experiment: Antiproliferation activity against human U-87 MG cells assessed as growth inhibition measured after 1 hr by MTT assay. The experiment is classed as functional, cell-based, U-87MG ATCC.
Experiment [4] deals with A 172. Nature of the experiment: Induction of apoptosis in human A 172 cells assessed as upregulation of activated caspase 3 protein at 3 uM after 24 hrs by western blot analysis. The experiment is classed as functional, cell-based. For orientation: A western blot detects proteins with antibodies after separation by electrophoresis.
The subject of experiment [5] is A 172. Nature of the experiment: Induction of cell cycle arrest in human A 172 cells assessed as accumulation at G0/G1 phase by propidium iodide staining based flow cytometric analysis. The experiment is classed as functional. Particulars: dose microM <=10. (In general: A flow cytometer gives signals particle by particle.)
Experiment [6] has as its system Glioblastoma cell line. Nature of the experiment: Cytotoxicity against human glioblastoma cell P3 cells assessed as reduction in cell viability upto 72 hrs by MTT assay. It is filed as functional, cell-based. Particulars: dose microM <=30, time hrs <=72.
The test system of experiment [7] is U-87 MG. The experiment can be described thus: Antitumor activity in TMZ-resistant human U-87 MG cells transplanted in BALB/C mouse assessed as increase in mouse survival at 10 mg/kg, ip measured for every 2 days measured for 40 days. It is filed as functional, organism-based. The settings on record: U-87MG ATCC, time 40.0 day.
In experiment [8] the test system is A 172. The experiment can be described thus: Induction of apoptosis in human A 172 cells assessed as upregulation of cleaved PARP at 3 uM after 24 hrs by western blot analysis. It is filed as functional, cell-based.
For experiment [9], the system named is A 172. Nature of the experiment: Induction of cell cycle arrest in human A 172 cells assessed as accumulation at G2/M phase by propidium iodide staining based flow cytometric analysis. It is filed as functional. Particulars: dose microM <=10.
In experiment [10] the test system is A 172. Nature of the experiment: Cytotoxicity against TMZ-resistant human A 172 cells assessed as reduction in cell viability upto 72 hrs by MTT assay. It is filed as functional, cell-based. The settings on record: dose microM <=30, time hrs <=72.
The subject of experiment [11] is A 172. Nature of the experiment: Induction of cell cycle arrest in human A 172 cells assessed as increase in histone H3-S10 dephosphorylation upto 10 uM for 24 hrs by Western blot analysis. The experiment is classed as functional, cell-based. The settings on record: dose microM <=10, time 24.0 hrs.
The subject of experiment [12] is U-87 MG. Nature of the experiment: Antiproliferation activity against human U-87 MG cells assessed as growth inhibition at 10 uM after 3 days by MTT assay. The experiment is classed as functional, U-87MG ATCC. Particulars: 72 h, time 3 day.
Experiment [13] relates to U-87 MG. Nature of the experiment: Cytotoxicity against human U-87 MG cells assessed as reduction in cell viability upto 30 uM by MTT assay. It is filed as functional, cell-based. The settings on record: U-87MG ATCC, dose microM <=30, time hrs <=72, TDE = time-dependent effect.
In experiment [14] the test system is Glioblastoma cell line. Nature of the experiment: Cytotoxicity against human glioblastoma cell P5 cells assessed as reduction in cell viability upto 72 hrs by MTT assay. It is filed as functional, cell-based. The settings on record: dose microM <=30, time hrs <=72.
Experiment [15] has as its system Glioblastoma cell line. The experiment can be described thus: Cytotoxicity against TMZ-resistant human glioblastoma cell P5 cells assessed as reduction in cell viability upto 72 hrs by MTT assay. The experiment is classed as functional, cell-based. Particulars: dose microM <=30, time hrs <=72.
For experiment [16], the system named is Glioblastoma cell line. The experiment can be described thus: Cytotoxicity against human glioblastoma cell P1S cells assessed as reduction in cell viability upto 30 uM by MTT assay. It is filed as functional, cell-based. Particulars: dose microM <=30, time hrs <=72, TDE = time-dependent effect.

Broadly, the IC50 is the point on the concentration scale where inhibition reaches its midpoint. What is called inhibition is the percentage by which the read-out fell short of the control.

SMILES strings stand for the structures. Activity calls are given as the source filed them. No cut-off for these calls is given here.

In the case of `CC12CC3CC(C)(C1)CC(NCc1ccc(NC(=O)CCCCCCC(=O)NO)cc1)(C3)C2`, the IC50 in experiment [1] was determined as 5.42 nM; in the experiment on U-87 MG [3] it was 2950 nM. Besides, in the experiment on Glioblastoma cell line [2], the outcome was inactive. For the same compound, the outcome in the experiment with A 172 [4], in the experiment with U-87 MG [7], in the experiment with A 172 [8] and in the experiment on A 172 [11] was Active. For the same compound, the Activity entry is “Dose-Dependent Effect” in the experiment on A 172 [5]; “Dose-Dependent Effect” in the experiment with Glioblastoma cell line [6]; “Dose-Dependent Effect” with A 172 [9]; “Dose-Dependent Effect” with A 172 [10]; “Tde” with U-87 MG [13]; “Dose-Dependent Effect” in the experiment on Glioblastoma cell line [14]. Also, the Activity result in the experiment with Glioblastoma cell line [15] was “Dose-Dependent Effect”; in the experiment on Glioblastoma cell line [16], “Tde”. For the same compound, the inhibition at 10 µM in the experiment with U-87 MG [12] was 90%.
